These are literature values, as cited in US8222294B2, “Combinations of an anti emetic agent and an enkephalinase inhibitor” (Bioproject, priority 2004, dated 2012).

The series concerns cholera toxins. The following applies: cited from earlier work.
For `CC(=O)SC[C@H](Cc1ccccc1)C(=O)NCC(=O)OCc1ccccc1` [dexecadotril], the antisecretory activity result is on record as “active”.

As to `Cc1nccn1CC1CCc2c(c3ccccc3n2C)C1=O` (stereo not drawn) [ondansetron], the antisecretory activity entry was “not”.

In the case of `CC(=O)SCC(Cc1ccccc1)C(=O)NCC(=O)OCc1ccccc1` (stereo not drawn) [racecadotril], the antisecretory activity entry is recorded as “active”.
